Test results from the supplement of paper PMC11451515.

Legend:
Test in all cases: AUC of viability dose-response curve (% viability x log10 dose units); higher = less sensitive
Conditions in all cases: 48 h
SEM cells = tested on: SEM cells
Procedure, shortened: (§1)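 Medium-adapted leukemia cells in 1536-well plates, at 500 or 1000 cells/well, were incubated for 48 h at 37°C with library compounds in DMSO at 11 threefold doses from 47 μM to 0.79 nM. CellTiter-Glo One luminescence normalised per plate to DMSO and cell-free wells was fitted with a four-parameter log-logistic model over log10 doses. Area under the curve was integrated from this fit by trapezoidal rule, with curves beyond full viability scaled and failed quality-control curves removed.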

P12-Ichikawa = tested on: P12-Ichikawa
Procedure, shortened: as §1

NOMO1 = tested on: NOMO1
Procedure, shortened: as §1

[1] = RPMI 5 mM glucose + 10% dialyzed FBS

SMILES	AUC of viability dose-response curve (SEM cells; HPLM + 10% dialyzed FBS)	AUC of viability dose-response curve (SEM cells; RPMI 5 mM glucose + 10% FBS)	AUC of viability dose-response curve (SEM cells; [1])	AUC of viability dose-response curve (P12-Ichikawa; HPLM + 10% dialyzed FBS)	AUC of viability dose-response curve (P12-Ichikawa; RPMI 5 mM glucose + 10% FBS)	AUC of viability dose-response curve (P12-Ichikawa; [1])	AUC of viability dose-response curve (NOMO1; HPLM + 10% dialyzed FBS)	AUC of viability dose-response curve (NOMO1; RPMI 5 mM glucose + 10% FBS)	AUC of viability dose-response curve (NOMO1; [1])
Cl.c1cnc2cc3c(cc2n1)C1CNCC3C1	458	444	461	474	444	467	465	470	467
C#Cc1cccc(Nc2ncnc3cc(OCCOC)c(OCCO)cc23)c1	431	400	417	451	453	451	372	455	455
O=[N+]([O-])c1cn2c(n1)OC[C@@H](OCc1ccc(OC(F)(F)F)cc1)C2	444	466	455	450	453	458	454	459	470
C1Cc2[nH]nc(-c3nn[nH]n3)c2C1	464	438	445	470	458	472	460	460	456
CC(C)OC(=O)CCC/C=C\C[C@@H]1[C@@H](/C=C/[C@@H](O)COc2cccc(C(F)(F)F)c2)[C@H](O)C[C@@H]1O	455	452	434	459	439	446	443	448	450
CCOC(=O)Nc1ccc(NCc2ccc(F)cc2)cc1N	459	467	470	452	464	451	424	448	445
Clc1ccc(C2(c3ccc(-c4cn[nH]c4)cc3)CCNCC2)cc1	384	445	388	419	369	390	427	389	395
COc1ccc(/C=C\c2cc(OC)c(OC)c(OC)c2)cc1O	85.1	50.9	70	48.7	57	71.5	197	126	155
CCCCCCCCCCCC(CC1OC(=O)C1CCCCCC)OC(=O)C(CC(C)C)NC=O (configuration not stated)	407	343	391	443	440	443	452	461	456
O=C(O)c1ccc2cc(-c3ccc(O)c(C45CC6CC(CC(C6)C4)C5)c3)ccc2c1	287	282	266	299	285	277	323	330	311
COc1cc2c(Nc3ccc(NC(=O)c4ccccc4)cc3)ncnc2cc1OCCCN1CCOCC1	396	389	385	383	390	386	456	417	425
CCCCN(CCCC)CCC(O)c1cc2c(Cl)cc(Cl)cc2c2cc(C(F)(F)F)ccc12 (configuration not stated)	442	408	415	466	459	452	453	459	471
COc1nc(-c2ccc3c(c2)OCO3)n(-c2ccc(NC(=O)CSc3ccccc3)cc2)n1	457	443	453	470	454	428	440	449	455
C[C@]\1(CCS\C(=N1)N)C2=CC(=C(F)C=C2F)C3=CN=CN=C3	441	390	429	411	420	435	378	359	383
C[C@H]([C@H](O)CCC(C)(C)O)[C@H]1CC[C@@]2(O)C/3=C/C(=O)[C@@H]4C[C@@H](O)[C@@H](O)C[C@]4(C)[C@H]3CC[C@]12C	461	458	474	460	452	470	470	468	476
C#CCN(C)[C@H](C)Cc1ccccc1	401	410	407	431	413	402	401	385	410
COC[C@H](NC(=O)c1cnc(C)s1)C(=O)N[C@@H](COC)C(=O)N[C@@H](Cc1ccccc1)C(=O)[C@@]1(C)CO1	214	213	199	251	245	231	265	273	271
CC1SC/2=C(C(O)=O)/C(=O)C3=CC(=C(C=C3N12)N4CCN(CC4)C\C5=C(C)\OC(=O)O5)F (configuration not stated)	472	442	449	437	449	449	413	456	443
